Source: US10294212B2 (CURADEV PHARMA PRIVATE LTD., priority 2013, dated 2019)

What was measured:
IDO1 in HeLa cells = IDO1 in HeLa cells (Homo sapiens (Human), UniProt P14902); assay: HeLa cell based IDO1 assay (IFNγ-induced, KYN in supernatant)
Procedure, shortened: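 Kynurenine in the supernatant, quantified by C-18 HPLC with 360 nm absorbance after TCA hydrolysis (65 °C, 15 min), was the read-out. Compounds (typically 10 μM to 1 nM) were added in HBSS containing 80 μM tryptophan to HeLa cells pre-induced overnight with 50 ng/mL IFNγ. IC50 came from nonlinear fits of % inhibition versus 1% DMSO vehicle.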

[1] = target: Human indoleamine 2,3-dioxygenase1 (hIDO1) (Homo sapiens (Human), UniProt P14902); assay: In-vitro IDO1 enzyme assay (conversion of L-tryptophan to KYN); assay type: biochemical; details: read-out: IC50 (IDO1) Enz
Procedure, shortened: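 Kynurenine formation quantified by HPLC absorbance at 360 nm or LC/MS/MS after TCA quench and 15 min at 65 °C. Reaction: 10 nM N-His hIDO1, 30 μM tryptophan, ascorbate/methylene blue/catalase, pH 6.5 phosphate buffer, 37 °C for 30 min. Inhibition relative to 1% DMSO vehicle, fitted to IC50.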

[2] = target: Human TDO (hTDO)-transfected CHO-K1 cells (Homo sapiens (Human), UniProt P48775); assay: CHO-K1 cell based TDO assay; details: hTDO cellular assay
Procedure, shortened: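 Kynurenine output was read by LC/MS/MS after TCA precipitation and 15 min at 65° C. Before that, CHO-K1 cells stably carrying human TDO2 were incubated 2 h with compounds (typically 31 μM to 10 nM) and 80 μM L-tryptophan in HBSS. Decrease versus DMSO vehicle gave percent inhibition, then IC50.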

IDO1 in HeLa cells, sequence (P14902 whole entry): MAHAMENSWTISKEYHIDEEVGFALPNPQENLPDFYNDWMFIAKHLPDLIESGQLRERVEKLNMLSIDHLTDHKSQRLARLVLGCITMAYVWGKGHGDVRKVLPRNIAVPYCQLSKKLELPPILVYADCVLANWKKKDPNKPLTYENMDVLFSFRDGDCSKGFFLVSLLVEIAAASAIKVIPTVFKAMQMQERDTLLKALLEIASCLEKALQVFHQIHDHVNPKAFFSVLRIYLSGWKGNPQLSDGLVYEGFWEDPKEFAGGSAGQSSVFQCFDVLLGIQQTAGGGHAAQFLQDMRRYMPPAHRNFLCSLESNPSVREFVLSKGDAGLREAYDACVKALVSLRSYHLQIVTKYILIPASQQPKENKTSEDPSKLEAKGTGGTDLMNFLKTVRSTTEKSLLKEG
Human indoleamine 2,3-dioxygenase1 (hIDO1), sequence (P14902 whole entry): as above
Human TDO (hTDO)-transfected CHO-K1 cells, sequence (P48775 whole entry): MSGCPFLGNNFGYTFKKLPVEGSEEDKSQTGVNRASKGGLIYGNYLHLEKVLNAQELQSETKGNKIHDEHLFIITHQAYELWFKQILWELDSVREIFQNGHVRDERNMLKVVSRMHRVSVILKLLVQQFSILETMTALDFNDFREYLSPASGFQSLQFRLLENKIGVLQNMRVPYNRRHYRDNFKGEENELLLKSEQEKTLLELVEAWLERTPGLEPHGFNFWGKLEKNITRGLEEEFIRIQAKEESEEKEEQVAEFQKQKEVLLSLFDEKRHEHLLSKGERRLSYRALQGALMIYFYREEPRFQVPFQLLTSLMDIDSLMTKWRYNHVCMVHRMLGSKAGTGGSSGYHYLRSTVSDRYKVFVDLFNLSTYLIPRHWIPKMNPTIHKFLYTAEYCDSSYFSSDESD

IC50 (IDO1 in HeLa cells) [nM] | IC50 [1] [nM] | IC50 [2] [nM] | SMILES
< 200 | < 200 | > 2000 | CNC(=O)c1cc(-c2nccc3c(Nc4ccc(F)c(C(F)(F)F)c4)c(N)oc23)ccn1 [Compound 227, 4-(2-amino-3-((4-fluoro-3-(trifluoromethyl)phenyl)amino)furo[2,3-c]pyridin-7-yl)-N-methylpicolinamide]
< 200 | < 200 | 500 to 2000 | Nc1oc2cnc(F)cc2c1Nc1cccc(C(F)(F)F)c1 [Compound 221, 5-Fluoro-N^3-(3-(trifluoromethyl)phenyl)furo[2,3-c]pyridine-2,3-diamine]
< 200 | < 200 | 500 to 2000 | Nc1oc2c(-c3cc(F)ccc3Cl)nccc2c1Nc1ccc(F)c(Cl)c1 [Compound 276, N^3-(3-Chloro-4-fluorophenyl)-7-(2-chloro-5-fluorophenyl)furo[2,3-c]pyridine-2,3-diamine]
< 200 | < 200 | > 2000 | Nc1sc2ccccc2c1Nc1cccc(C(F)(F)F)c1 [Compound 119, N^3-(3-(Trifluoromethyl)phenyl)benzo[b]thiophene-2,3-diamine]
< 200 | < 200 | 500 to 2000 | Nc1oc2c(-c3ccc4c(c3)OCO4)nccc2c1Nc1ccc(F)c(Cl)c1 [Compound 261, 7-(Benzo[d][1,3]dioxol-5-yl)-N^3-(3-chloro-4-fluorophenyl)furo[2,3-c]pyridine-2,3-diamine]
< 200 | < 200 | 500 to 2000 | Nc1oc2c(-c3cc(F)cc(F)c3)nccc2c1Nc1ccc(F)c(Cl)c1 [Compound 278, N^3-(3-Chloro-4-fluorophenyl)-7-(3,5-difluorophenyl)furo[2,3-c]pyridine-2,3-diamine]
< 200 | < 200 | > 2000 | Cc1nccc2c(Nc3cccc(C(F)(F)F)c3)c(N)oc12 [Compound 80, 7-Methyl-N^3-(3-(trifluoromethyl)phenyl)furo[2,3-c]pyridine-2,3-diamine]
< 200 | < 200 | 500 to 2000 | CNC(=O)c1cc(-c2nccc3c(Nc4ccccc4Cl)c(N)oc23)ccn1 [Compound 219, 4-(2-Amino-3-((2-chlorophenyl)amino)furo[2,3-c]pyridin-7-yl)-N-methylpicolinamide]
< 200 | < 200 | > 2000 | Cc1cc(-c2nc(C)cc3c(Nc4ccc(F)c(Cl)c4)c(N)oc23)ccn1 [Compound 267, N^3-(3-Chloro-4-fluorophenyl)-5-methyl-7-(2-methylpyridin-4-yl)furo[2,3-c]pyridine-2,3-diamine]
< 200 | < 200 | 500 to 2000 | Cc1cc(-c2nc(F)cc3c(Nc4ccc(F)c(Cl)c4)c(N)oc23)ccn1 [Compound 244, N^3-(3-Chloro-4-fluorophenyl)-5-fluoro-7-(2-methylpyridin-4-yl)furo[2,3-c]pyridine-2,3-diamine]
< 200 | < 200 | < 500 | Cc1cc(-c2nccc3c(Nc4ccc(F)cc4)c(N)oc23)ccn1 [Compound 208, N^3-(4-fluorophenyl)-7-(2-methylpyridin-4-yl)furo[2,3-c]pyridine-2,3-diamine]
< 200 | < 200 | 500 to 2000 | Cn1cc(-c2nccc3c(Nc4ccc(F)c(Cl)c4)c(N)oc23)cn1 [Compound 148, N^3-(3-Chloro-4-fluorophenyl)-7-(1-methyl-1H-pyrazol-4-yl)furo[2,3-c]pyridine-2,3-diamine]
< 200 | < 200 | > 2000 | CCc1nccc2c(Nc3ccc(F)c(C(F)(F)F)c3)c(N)oc12 [Compound 74, 7-Ethyl-N^3-(4-fluoro-3-(trifluoromethyl)phenyl)furo[2,3-c]pyridine-2,3-diamine]
< 200 | < 200 | 500 to 2000 | COc1cc(-c2nccc3c(Nc4ccc(F)c(Cl)c4)c(N)oc23)ccn1 [Compound 229, N^3-(3-Chloro-4-fluorophenyl)-7-(2-methoxypyridin-4-yl)furo[2,3-c]pyridine-2,3-diamine]
< 200 | < 200 | 500 to 2000 | NC(=O)c1ccc(-c2nccc3c(Nc4ccc(F)c(Cl)c4)c(N)oc23)cc1 [Compound 151, 4-(2-Amino-3-((3-chloro-4-fluorophenyl)amino)furo[2,3-c]pyridin-7-yl)benzamide]
< 200 | < 200 | > 2000 | COc1cc2c(Nc3ccc(F)c(Cl)c3)c(N)oc2c(-c2ccc(C(N)=O)cc2)n1 [Compound 175, 4-(2-amino-3-((3-chloro-4-fluorophenyl)amino)-5-methoxyfuro[2,3-c]pyridin-7-yl)benzamide]
< 200 | < 200 | 500 to 2000 | COc1cc2c(Nc3ccc(F)c(Cl)c3)c(N)oc2cn1 [Compound 64, N^3-(3-Chloro-4-fluoro-phenyl)-5-methoxy-furo[2,3-c]pyridine-2,3-diamine]

SMILES | IC50 (IDO1 in HeLa cells) [nM] | IC50 [1] [nM] | IC50 [2] [nM]
Cc1cc(Cl)cc(Nc2c(N)oc3cnccc23)c1 [Compound 87, N^3-(3-Chloro-5-methylphenyl)furo[2,3-c]pyridine-2,3-diamine] | 200 to 1000 | 200 to 1000 | 500 to 2000
C#Cc1cccc(Nc2c(N)oc3cnccc23)c1 [Compound 68, N^3-(3-Ethynylphenyl)furo[2,3-c]pyridine-2,3-diamine] | < 200 | 200 to 1000 | 500 to 2000
Nc1sc2ccc(Cl)cc2c1Nc1ccccc1 [Compound 130, 5-Chloro-N^3-phenylbenzo[b]thiophene-2,3-diamine] | 200 to 1000 | 200 to 1000 | > 2000
CCOC(=O)Nc1oc2c(-c3ccnc(C)c3)nccc2c1N(C(=O)OCC)c1ccc(F)c(Cl)c1 [Compound 269, Ethyl (3-chloro-4-fluorophenyl)(2-((ethoxycarbonyl)amino)-7-(2-methylpyridin-4-yl)furo[2,3-c]pyridin-3-yl)carbamate] | > 1000 | > 1000 | > 2000
Cc1cccc(Nc2c(N)sc3ccccc23)c1C [Compound 138, N^3-(2,3-Dimethylphenyl)-1-benzothiophene-2,3-diamine] | 200 to 1000 | > 1000 | 500 to 2000
N#Cc1nccc2c(Nc3ccc(F)c(F)c3)c(N)oc12 [Compound 185, 2-Amino-3-((3,4-difluorophenyl)amino)furo[2,3-c]pyridine-7-carbonitrile] | < 200 | 200 to 1000 | < 500
N#Cc1ccc2c(Nc3ccccc3Cl)c(N)oc2c1 [Compound 116, 2-Amino-3-((2-chlorophenyl)amino)benzofuran-6-carbonitrile] | 200 to 1000 | > 1000 | > 2000
Cc1cc(Br)ccc1Nc1c(N)sc2ccccc12 [Compound 237, N^3-(4-Bromo-2-methylphenyl)benzo[b]thiophene-2,3-diamine] | 200 to 1000 | > 1000 | > 2000
Nc1oc2cnccc2c1Nc1ccc2c(c1)CCCC2 [Compound 71, N^3-(5,6,7,8-Tetrahydronaphthalen-2-yl)furo[2,3-c]pyridine-2,3-diamine] | < 200 | > 1000 | > 2000
Cc1cc(Nc2c(N)oc3cnccc23)ccc1Cl [Compound 70, N^3-(4-Chloro-3-methylphenyl)furo[2,3-c]pyridine-2,3-diamine] | < 200 | 200 to 1000 | 500 to 2000
